Measurements taken from ChEMBL document CHEMBL5385847, “Design, synthesis and biological evaluation of a new class of 7H-pyrrolo[2,3-d]pyrimidine derivatives as Mps1 inhibitors for the treatment of breast cancer” (Eur J Med Chem, 2023).
Activity calls are given as the source filed them. The calls are words filed in the database; no cut-off is given here.

Columns and labels:
[1] = molecular target: T1, Dual specificity protein kinase TTK (Homo sapiens, UniProt P33981); assay: Inhibition of Mps1 (unknown origin) incubated for 120 mins in presence of substrate/ATP by ADP-Glo assay
T1 sequence (P33981 whole entry): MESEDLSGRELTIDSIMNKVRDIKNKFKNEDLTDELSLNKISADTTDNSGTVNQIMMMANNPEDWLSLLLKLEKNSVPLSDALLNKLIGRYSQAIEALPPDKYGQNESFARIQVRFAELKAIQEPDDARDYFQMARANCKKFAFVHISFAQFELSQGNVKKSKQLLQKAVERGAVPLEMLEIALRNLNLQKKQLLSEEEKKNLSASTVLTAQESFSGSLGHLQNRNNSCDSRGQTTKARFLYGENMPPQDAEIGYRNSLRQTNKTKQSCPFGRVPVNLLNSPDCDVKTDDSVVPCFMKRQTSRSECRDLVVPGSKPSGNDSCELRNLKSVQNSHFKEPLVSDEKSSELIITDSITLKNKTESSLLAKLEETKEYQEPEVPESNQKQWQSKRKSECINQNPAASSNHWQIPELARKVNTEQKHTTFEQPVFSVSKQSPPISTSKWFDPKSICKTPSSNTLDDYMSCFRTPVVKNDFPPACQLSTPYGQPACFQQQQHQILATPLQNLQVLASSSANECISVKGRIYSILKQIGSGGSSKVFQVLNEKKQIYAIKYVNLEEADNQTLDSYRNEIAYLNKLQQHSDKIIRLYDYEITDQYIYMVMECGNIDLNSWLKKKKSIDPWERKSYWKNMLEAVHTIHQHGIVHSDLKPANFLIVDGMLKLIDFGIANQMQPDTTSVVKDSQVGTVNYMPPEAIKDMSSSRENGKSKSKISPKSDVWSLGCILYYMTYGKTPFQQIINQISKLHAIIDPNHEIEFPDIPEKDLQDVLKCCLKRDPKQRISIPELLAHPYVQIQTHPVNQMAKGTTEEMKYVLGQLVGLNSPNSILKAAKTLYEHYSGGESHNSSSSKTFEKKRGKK

4T1-Luc = assay: Antitumor activity against mouse 4T1-Luc cells xenografted in BALB/C mouse assessed as delay in tumor growth at 10 mg/kg, ip dosed once a week for 15 days; assay type: functional, organism-based; settings: time 15.0 day
4T1 [2] = assay: Induction of apoptosis in 4T1 cells assessed as early apoptotic cells at 5 uM incubated for 48 hrs by Annexin V-FITC/PI staining based flow cytometry (reference value: 0.32 %); assay type: functional, Mus musculus
4T1 [3] = assay: Induction of apoptosis in 4T1 cells assessed as late apoptotic cells at 5 uM incubated for 48 hrs by Annexin V-FITC/PI staining based flow cytometry (reference value: 1.73 %); assay type: functional, Mus musculus
MCF7 [4] = assay: Induction of apoptosis in human MCF7 cells assessed as late apoptotic cells at 5 uM incubated for 48 hrs by Annexin V-FITC/PI staining based flow cytometry (reference value: 0.63 %); assay type: functional
MCF7 [5] = assay: Induction of apoptosis in human MCF7 cells assessed as early apoptotic cells at 5 uM incubated for 48 hrs by Annexin V-FITC/PI staining based flow cytometry (reference value: 1.19 %); assay type: functional
4T1 [6] = assay: Induction of apoptosis in 4T1 cells assessed as necrotic cells at 5 uM incubated for 48 hrs by Annexin V-FITC/PI staining based flow cytometry (reference value: 0.20 %); assay type: functional, Mus musculus
MCF7 [7] = assay: Induction of apoptosis in human MCF7 cells assessed as necrotic cells at 5 uM incubated for 48 hrs by Annexin V-FITC/PI staining based flow cytometry (reference value: 0.03 %); assay type: functional

Structure (SMILES)	IC50 [1]	also measured
CN1CCN(c2ccc(Nc3nc(-n4ccc5cnccc54)c4cc[nH]c4n3)cc2)CC1	149 nM	–
CN1CCN(c2ccc(Nc3nc(-c4cnn(C)c4)c4cc[nH]c4n3)cc2)CC1	67 nM	–
COc1cc(N2CCOCC2)ccc1Nc1nc(-n2nc(N)c3ccccc32)c2cc[nH]c2n1	33 nM	–
CN1CCN(c2ccc(Nc3nc(-n4cnc5ccccc54)c4cc[nH]c4n3)cc2)CC1	83 nM	–
COc1cc(N2CCOCC2)ccc1Nc1nc(-n2ccc3ccccc32)c2cc[nH]c2n1	132 nM	–
Nc1nn(-c2nc(Nc3ccc(N4CCOCC4)cc3)nc3[nH]ccc23)c2ccccc12	49 nM	–
COc1ccccc1Nc1nc(-n2nc(N)c3ccccc32)c2cc[nH]c2n1	51 nM	–
COc1cc(N2CCOCC2)ccc1Nc1nc(-n2cnc3ccccc32)c2cc[nH]c2n1	40 nM	–
COc1cc(N2CCOCC2)ccc1Nc1nc(-c2cnn(C)c2)c2cc[nH]c2n1	34 nM	–
c1ccc2c(c1)ncn2-c1nc(Nc2ccc(N3CCOCC3)cc2)nc2[nH]ccc12	47 nM	–
CCN1CCN(c2ccc(Nc3nc(-n4nc(N)c5ccccc54)c4cc[nH]c4n3)cc2)CC1	32 nM	–
c1cc2c(ccn2-c2nc(Nc3ccc(N4CCOCC4)cc3)nc3[nH]ccc23)cn1	464 nM	–
CCc1ccccc1Nc1nc(-n2nc(N)c3ccccc32)c2cc[nH]c2n1	338 nM	–
CN1CCN(c2ccc(Nc3nc(-n4nc(N)c5ccccc54)c4cc[nH]c4n3)cc2F)CC1	35 nM	–
CC(=O)O[C@H]1C(=O)[C@@]2(C)[C@H]([C@H](OC(=O)c3ccccc3)[C@]3(O)C[C@H](OC(=O)[C@H](O)[C@@H](NC(=O)c4ccccc4)c4ccccc4)C(C)=C1C3(C)C)[C@]1(OC(C)=O)CO[C@@H]1C[C@@H]2O	–	Activity (4T1-Luc): Active
Nc1nn(-c2nc(Nc3ccccc3Cl)nc3[nH]ccc23)c2ccccc12	68 nM	–
Nc1nn(-c2nc(Nc3ccccc3F)nc3[nH]ccc23)c2ccccc12	54 nM	–
CN1CCN(c2ccc(Nc3nc(-n4nc(N)c5ccccc54)c4cc[nH]c4n3)cc2Cl)CC1	50 nM	–
Cc1cc(N2CCOCC2)ccc1Nc1nc(NC2CCCCC2)c2nc[nH]c2n1	–	Activity (4T1 [2]): 1.56%; Activity (4T1 [3]): 9.86%; Activity (MCF7 [4]): 4.31%; Activity (MCF7 [5]): 5.46%; Activity (4T1 [6]): 0.54%; Activity (MCF7 [7]): 0.35%
COc1cc(N2CCOCC2)ccc1Nc1nc(-n2ccc3cnccc32)c2cc[nH]c2n1	154 nM	–
Nc1nn(-c2nc(Nc3ccccc3)nc3[nH]ccc23)c2ccccc12	106 nM	–
Nc1nn(-c2nc(Nc3ccccc3OC(F)(F)F)nc3[nH]ccc23)c2ccccc12	154 nM	–
CN1CCN(c2ccc(Nc3nc(-n4ccc5ccccc54)c4cc[nH]c4n3)cc2)CC1	137 nM	–
Cc1cc(N2CCN(C)CC2)ccc1Nc1nc(-n2nc(N)c3ccccc32)c2cc[nH]c2n1	41 nM	–
Cn1cc(-c2nc(Nc3ccc(N4CCOCC4)cc3)nc3[nH]ccc23)cn1	49 nM	–
c1ccc2c(c1)ccn2-c1nc(Nc2ccc(N3CCOCC3)cc2)nc2[nH]ccc12	144 nM	–
